Structures are written as SMILES. Where only a bound is given, the exact number is not on record here.

26 compounds from BindingDB's records for doi:10.1021/jm060290f (Cardiff University, 2006) can be followed below.

The target of the first experiment is sterol 24-C-methyltransferase (Leishmania major). Kind of experiment: Inhibition of Leishmania major recombinant 24-SMT.
In general, IC50 refers to the concentration at which inhibition is half-maximal. For the compound `C[C@H](C(=O)NCCCC(=O)O)[C@H]1CC[C@H]2C3CC=C4C[C@@H](O)CC[C@]4(C)[C@H]3CC[C@]12C` (stereo partly drawn) [3beta-ol-23,24-bisnor-5-en-22-(butanoic acid) amide], the IC50 was more than 100 µM.
Still for that read-out and setting: under `CC(=O)O[C@H]1CC[C@@]2(C)C(=CCC3[C@@H]4CC[C@H]([C@H](C)CNCCCCCCCC(=O)O)[C@@]4(C)CC[C@@H]32)C1` (stereo partly drawn) [3beta-acetoxy-23,24-bisnor-chol-5-en-22-(octanoic acid) amine] stands more than 100 µM; under `COC(=O)CNC[C@@H](C)[C@H]1CC[C@H]2C3CC=C4C[C@@H](OC(C)=O)CC[C@]4(C)[C@H]3CC[C@]12C` (stereo partly drawn) [3beta-acetoxy-23,24-bisnor-chol-5-en-22-(methyl ethanoate) amine], more than 100 µM.
Same read-out and setting: then `C[C@H](CNCCCCCCCC(=O)O)[C@H]1CC[C@H]2C3CC=C4C[C@@H](O)CC[C@]4(C)[C@H]3CC[C@]12C` (stereo partly drawn) [3beta-ol-23,24-bisnor-5-en-22-(octanoic acid) amine], with more than 100 µM; and `C[C@H](C(=O)NCCCC[C@H](NC(=O)OCc1ccccc1)C(=O)O)[C@H]1CC[C@H]2C3CC=C4C[C@@H](O)CC[C@]4(C)[C@H]3CC[C@]12C` (some centres not stated) [3beat-ol-23,24-bisnor-5-en-22-(6-(2-Z-amino)hexanoic acid) amide], with more than 100 µM.
Still for that read-out and setting: then `C[C@H](C(=O)NCCCCCCCC(=O)O)[C@H]1CC[C@H]2C3CC=C4C[C@@H](O)CC[C@]4(C)[C@H]3CC[C@]12C` (stereo partly drawn) [3beta-ol-23,24-bisnor-5-en-22-(octanoic acid) amide], with more than 100 µM.
Turning to `COC(=O)CCNC[C@@H](C)[C@H]1CC[C@H]2C3CC=C4C[C@@H](OC(C)=O)CC[C@]4(C)[C@H]3CC[C@]12C` (stereo partly drawn) [3beta-acetoxy-23,24-bisnor-chol-5-en-22-(methyl propanoate) amine], the IC50 was more than 100 µM.
Turning to `C[C@H](C(=O)NCCCCCC(=O)O)[C@H]1CC[C@H]2C3CC=C4C[C@@H](O)CC[C@]4(C)[C@H]3CC[C@]12C` (stereo partly drawn) [3beta-ol-23,24-bisnor-5-en-22-(hexanoic acid) amide], the IC50 is more than 100 µM.
On the same count and under the same terms, under `C[C@H](C(=O)NCC(=O)O)[C@H]1CC[C@H]2C3CC=C4C[C@@H](O)CC[C@]4(C)[C@H]3CC[C@]12C` (stereo partly drawn) [3beta-ol-23,24-bisnor-5-en-22-(ethanoic acid) amide] stands more than 100 µM.
For `C[C@H](CNCC(=O)O)[C@H]1CC[C@H]2C3CC=C4C[C@@H](O)CC[C@]4(C)[C@H]3CC[C@]12C` (stereo partly drawn) [3beta-ol-23,24-bisnor-5-en-22-(ethanoic acid) amine], the IC50 is more than 100 µM.
On the same count and under the same terms, then `C[C@H](CNCCCCC(=O)O)[C@H]1CC[C@H]2C3CC=C4C[C@@H](O)CC[C@]4(C)[C@H]3CC[C@]12C` (stereo partly drawn) [3beta-ol-23,24-bisnor-5-en-22-(pentanoic acid) amine], with 48.9 µM; and `C[C@H](C(=O)NCCC[C@H](NC(=O)OCc1ccccc1)C(=O)O)[C@H]1CC[C@H]2C3CC=C4C[C@@H](O)CC[C@]4(C)[C@H]3CC[C@]12C` (stereo partly drawn) [3beta-ol-23,24-bisnor-5-en-22-(5-(2-Z-amino)pentanoic acid) amide], with more than 100 µM.
Same read-out and setting: then `C[C@H](C(=O)NCCC(=O)O)[C@H]1CC[C@H]2C3CC=C4C[C@@H](O)CC[C@]4(C)[C@H]3CC[C@]12C` (stereo partly drawn) [3beta-ol-23,24-bisnor-5-en-22-(propanoic acid) amide], with more than 100 µM; and `CC(=O)O[C@H]1CC[C@@]2(C)C(=CCC3[C@@H]4CC[C@H]([C@H](C)CNCC[C@H](NC(=O)OC(C)(C)C)C(=O)O)[C@@]4(C)CC[C@@H]32)C1` (stereo partly drawn) [3beta-acetoxy-23,24-bisnor-5-en-22-(4-(2-Boc-amino)butanoic acid) amine], with more than 100 µM; and `CC(=O)O[C@H]1CC[C@@]2(C)C(=CCC3[C@@H]4CC[C@H]([C@H](C)C(=O)NC[C@H](NC(=O)OC(C)(C)C)C(=O)O)[C@@]4(C)CC[C@@H]32)C1` (stereo partly drawn) [3beta-acetoxy-23,24-bisnor-5-en-22-(3-(2-Boc-amino)propanoic acid) amide], with more than 100 µM.
The same measure, in the same setting: under `CC(=O)O[C@H]1CC[C@@]2(C)C(=CCC3[C@@H]4CC[C@H]([C@H](C)C(=O)NCCCC[C@H](NC(=O)OCc5ccccc5)C(=O)OCc5ccccc5)[C@@]4(C)CC[C@@H]32)C1` (stereo partly drawn) [3beta-acetoxy-23,24-bisnor-5-en-22-(6-(2-Z-amino)benzyl hexanoate) amide] stands more than 100 µM.
As for `CC(=O)O[C@H]1CC[C@@]2(C)C(=CCC3[C@@H]4CC[C@H]([C@H](C)CNCCC[C@H](NC(=O)OCc5ccccc5)C(=O)O)[C@@]4(C)CC[C@@H]32)C1` (stereo partly drawn) [3beta-acetoxy-23,24-bisnor-5-en-22-(5-(2-Z-amino)pentanoic acid) amine], the IC50 was more than 100 µM.
On the same count and under the same terms, then `C[C@H](CNCCCCCC(=O)O)[C@H]1CC[C@H]2C3CC=C4C[C@@H](O)CC[C@]4(C)[C@H]3CC[C@]12C` (stereo partly drawn) [3beta-ol-23,24-bisnor-5-en-22-(hexanoic acid) amine], with more than 100 µM; and `CC(=O)O[C@H]1CC[C@@]2(C)C(=CCC3[C@@H]4CC[C@H]([C@H](C)C(=O)NCC[C@H](NC(=O)OC(C)(C)C)C(=O)O)[C@@]4(C)CC[C@@H]32)C1` (stereo partly drawn) [3beta-acetoxy-23,24-bisnor-5-en-22-(4-(2-Boc-amino)butanoic acid) amide], with more than 100 µM.
Same read-out and setting: under `CC(=O)O[C@H]1CC[C@@]2(C)C(=CCC3[C@@H]4CC[C@H]([C@H](C)CNCCCC(=O)O)[C@@]4(C)CC[C@@H]32)C1` (stereo partly drawn) [3beta-acetoxy-23,24-bisnor-chol-5-en-22-(butanoic acid) amine] stands more than 100 µM; under `CC(=O)O[C@H]1CC[C@@]2(C)C(=CCC3[C@@H]4CC[C@H]([C@H](C)CNC[C@H](NC(=O)OC(C)(C)C)C(=O)O)[C@@]4(C)CC[C@@H]32)C1` (stereo partly drawn) [3beta-acetoxy-23,24-bisnor-5-en-22-(3-(2-Boc-amino)propanoic acid) amine], more than 100 µM.
`COC(=O)[C@@H](N)CCCCNC(=O)[C@@H](C)[C@H]1CC[C@H]2C3CC=C4C[C@@H](O)CC[C@]4(C)[C@H]3CC[C@]12C` (stereo partly drawn) [3beta-ol-23,24-bisnor-5-en-22-(6-(2-amino) hexanoate ester) amide]: the IC50 was more than 100 µM.
Still for that read-out and setting: under `C[C@H](C(=O)NCCCCC(=O)O)[C@H]1CC[C@H]2C3CC=C4C[C@@H](O)CC[C@]4(C)[C@H]3CC[C@]12C` (stereo partly drawn) [3beta-ol-23,24-bisnor-5-en-22-(pentanoic acid) amide] stands more than 100 µM; under `CC(=O)O[C@H]1CC[C@@]2(C)C(=CCC3[C@@H]4CC[C@H]([C@H](C)C(=O)NCCC[C@H](NC(=O)OCc5ccccc5)C(=O)O)[C@@]4(C)CC[C@@H]32)C1` (stereo partly drawn) [3beta-acetoxy-23,24-bisnor-5-en-22-(5-(2-Z-amino)pentanoic acid) amide], more than 100 µM.
Regarding `COC(=O)CCCCNC[C@@H](C)[C@H]1CC[C@H]2C3CC=C4C[C@@H](OC(C)=O)CC[C@]4(C)[C@H]3CC[C@]12C` (stereo partly drawn) [3beta-acetoxy-23,24-bisnor-chol-5-en-22-(methyl pentanoate) amine], the IC50 is more than 100 µM.
As to `COC(=O)CCCCCCCNC[C@@H](C)[C@H]1CC[C@H]2C3CC=C4C[C@@H](OC(C)=O)CC[C@]4(C)[C@H]3CC[C@]12C` (stereo partly drawn) [3beta-acetoxy-23,24-bisnor-chol-5-en-22-(methyl octanoate) amine], the IC50 was more than 100 µM.

A further experiment concerns the target sterol 24-C-methyltransferase (Trypanosoma brucei brucei). Put plainly: Inhibition of Trypanosoma brucei brucei recombinant 24-SMT.
Regarding `COC(=O)CCCCCCCNC[C@@H](C)[C@H]1CC[C@H]2C3CC=C4C[C@@H](OC(C)=O)CC[C@]4(C)[C@H]3CC[C@]12C` (stereo partly drawn) [3beta-acetoxy-23,24-bisnor-chol-5-en-22-(methyl octanoate) amine], the IC50 was more than 100 µM.
